# Reference: US11655246B2, “Aminothiazole compounds as inhibitors of CTPS1” (STEP PHARMA S.A.S., priority 2017, dated 2023)
# Target: T1, human CTPS1 (Homo sapiens, UniProt P17812)
# T1 construct: purchased Proteros biostructures GmbH
# T1 sequence (P17812 1-591): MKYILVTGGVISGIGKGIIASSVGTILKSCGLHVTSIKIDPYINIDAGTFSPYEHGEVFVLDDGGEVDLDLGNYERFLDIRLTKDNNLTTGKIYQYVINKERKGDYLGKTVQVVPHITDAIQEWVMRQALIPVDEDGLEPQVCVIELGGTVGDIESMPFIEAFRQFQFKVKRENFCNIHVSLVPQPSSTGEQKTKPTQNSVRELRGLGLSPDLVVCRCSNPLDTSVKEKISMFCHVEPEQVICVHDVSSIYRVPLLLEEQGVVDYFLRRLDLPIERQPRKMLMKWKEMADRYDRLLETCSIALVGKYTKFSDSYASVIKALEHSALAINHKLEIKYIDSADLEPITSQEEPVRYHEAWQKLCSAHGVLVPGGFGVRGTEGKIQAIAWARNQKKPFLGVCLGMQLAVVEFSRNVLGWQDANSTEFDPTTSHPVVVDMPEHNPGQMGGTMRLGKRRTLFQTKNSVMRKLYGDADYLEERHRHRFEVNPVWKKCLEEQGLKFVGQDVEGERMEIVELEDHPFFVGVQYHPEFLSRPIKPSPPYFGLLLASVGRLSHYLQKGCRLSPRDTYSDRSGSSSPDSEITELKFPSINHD
# Assay: Human CTPS1 enzyme inhibition (ADP-Glo Max assay)
# Assay type: biochemical
# Conditions: Table 18, additional potency data, 25° C., read-out: CTPS1 (Human CTPS1 Enzyme Inhibition data grouped by potency range)
# Method in brief: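 ADP-Glo Max luminescence detection of ATP-to-ADP conversion by the enzyme, in 50 mM Tris, 10 mM MgCl2, 0.01% Tween-20, pH 8.0, with 2 mM L-cysteine added fresh. Enzyme preincubated with compound 10 minutes at 25° C. Percentage inhibition calculated per compound concentration.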
row,Structure (SMILES),IC50 [nM]
1,"CCOc1cncc(-c2ccc(NC(=O)C(C)(C)c3nc(NS(=O)(=O)C4CC4)sc3OC)cc2)n1 [T377, 2-(2-(cyclopropanesulfonamido)-5-methoxythiazol-4-yl)-N-(4-(6-ethoxypyrazin-2-yl)phenyl)-2-methylpropanamide]",100 to 1000
2,"CC(C)(C(=O)Nc1ccc(-c2cncc(OCC3CCCC3)n2)cc1)c1csc(NS(=O)(=O)C2CC2)n1 [T378, N-(4-(6-(cyclopentylmethoxy)pyrazin-2-yl)phenyl)-2-(2-(cyclopropanesulfonamido)thiazol-4-yl)-2-methylpropanamide]",1000 to 10000
3,"CC(C)(C(=O)Nc1ccc(-c2cncc(O)n2)cc1)c1csc(NS(=O)(=O)C2CC2)n1 [T379, 2-(2-(cyclopropanesulfonamido)thiazol-4-yl)-N-(4-(6-hydroxypyrazin-2-yl)phenyl)-2-methylpropanamide]",1000 to 10000
4,"CCS(=O)(=O)Nc1nc(C(C)(C)C(=O)Nc2ccc(-c3cncc(C#N)c3)cc2)cs1 [T384, N-(4-(5-cyanopyridin-3-yl)phenyl)-2-(2-(ethylsulfonamido)thiazol-4-yl)-2-methylpropanamide]",100 to 1000
5,"CCS(=O)(=O)Nc1nc(C(C)(C)C(=O)Nc2ccc(-c3cccnc3)cc2)cs1 [T386, 2-(2-(ethylsulfonamido)thiazol-4-yl)-2-methyl-N-(4-(pyridin-3-yl)phenyl)propanamide]",100 to 1000
6,"CC(C)(C(=O)Nc1ccc(-c2cncc(C(F)(F)F)c2)cn1)c1csc(NS(C)(=O)=O)n1 [T389, 2-methyl-2-(2-(methylsulfonamido)thiazol-4-yl)-N-(5′-(trifluoromethyl)-[3,3′-bipyridin]-6-yl)propanamide]",100 to 1000
7,"CC(C)(C(=O)Nc1ccc(-c2cncc(Cl)c2)cc1)c1csc(NS(C)(=O)=O)n1 [T393, N-(4-(5-chloropyridin-3-yl)phenyl)-2-methyl-2-(2-(methylsulfonamido)thiazol-4-yl)propanamide]",100 to 1000
8,"CC(C)(C(=O)Nc1ccc(-c2cncc(C(F)(F)F)n2)cn1)c1csc(NS(=O)(=O)CC2CC2)n1 [T396, 2-(2-((cyclopropylmethyl)sulfonamido)thiazol-4-yl)-2-methyl-N-(5-(6-(trifluoromethyl)pyrazin-2-yl)pyridin-2-yl)propanamide]",100 to 1000
9,"O=C(Nc1ccc(-c2cncc(C(F)(F)F)n2)cc1)C1(c2csc(NS(=O)(=O)C3CC3)n2)CC1 [T397, 1-(2-(cyclopropanesulfonamido)thiazol-4-yl)-N-(4-(6-(trifluoromethyl)pyrazin-2-yl)phenyl)cyclopropane-1-carboxamide]",100 to 1000
10,"CCC(C(=O)Nc1ccc(-c2cncc(C(C)C)n2)cn1)c1csc(NS(=O)(=O)C2CC2)n1 (stereo not shown) [T401, 2-(2-(cyclopropanesulfonamido)thiazol-4-yl)-N-(5-(6-isopropylpyrazin-2-yl)pyridin-2-yl)butanamide]",100 to 1000
11,"CCC(C(=O)Nc1ccc(-c2cncc(C(C)(C)OC)n2)cn1)c1csc(NS(=O)(=O)C2CC2)n1 (stereo not shown) [T402, 2-(2-(cyclopropanesulfonamido)thiazol-4-yl)-N-(5-(6-(2-methoxypropan-2-yl)pyrazin-2-yl)pyridin-2-yl)butanamide]",1000 to 10000
12,"CCC(C(=O)Nc1ccc(-c2cncc(C(C)(C)OC)n2)cc1F)c1csc(NS(=O)(=O)C2CC2)n1 (stereo not shown) [T403, 2-(2-(cyclopropanesulfonamido)thiazol-4-yl)-N-(2-fluoro-4-(6-(2-methoxypropan-2-yl)pyrazin-2-yl)phenyl)butanamide]",100 to 1000
13,"CCC(C(=O)Nc1ccc(-c2cncc(C#N)n2)cc1F)c1csc(NS(=O)(=O)C2CC2)n1 (stereo not shown) [T404, N-(4-(6-cyanopyrazin-2-yl)-2-fluorophenyl)-2-(2-(cyclopropanesulfonamido)thiazol-4-yl)butanamide]",100 to 1000
14,"CCC(C(=O)Nc1ccc(-c2cncc(C(C)(C)OC)n2)cc1)c1csc(NS(=O)(=O)C2CC2)n1 (stereo not shown) [T406, 2-(2-(cyclopropanesulfonamido)thiazol-4-yl)-N-(4-(6-(2-methoxypropan-2-yl)pyrazin-2-yl)phenyl)butanamide]",100 to 1000

# Next, values leading:
row,IC50 [nM],Structure (SMILES)
1,< 100,"CCS(=O)(=O)Nc1nc(C(C)(C)C(=O)Nc2ccc(-c3cncc(C(F)(F)F)c3)cn2)cs1 [T380, 2-(2-(ethylsulfonamido)thiazol-4-yl)-2-methyl-N-(5′-(trifluoromethyl)-[3,3′-bipyridin]-6-yl)propanamide]"
2,< 100,"CCS(=O)(=O)Nc1nc(C(C)(C)C(=O)Nc2ccc(-c3cncc(C(F)(F)F)n3)cn2)cs1 [T381, 2-(2-(ethylsulfonamido)thiazol-4-yl)-2-methyl-N-(5-(6-(trifluoromethyl)pyrazin-2-yl)pyridin-2-yl)propanamide]"
3,< 100,"CCOc1cncc(-c2ccc(NC(=O)C(C)(C)c3csc(NS(=O)(=O)CC)n3)nc2)n1 [T382, N-(5-(6-ethoxypyrazin-2-yl)pyridin-2-yl)-2-(2-(ethylsulfonamido)thiazol-4-yl)-2-methylpropanamide]"
4,< 100,"CCS(=O)(=O)Nc1nc(C(C)(C)C(=O)Nc2ccc(-c3cncc(OC(C)C)n3)cc2F)cs1 [T383, 2-(2-(ethylsulfonamido)thiazol-4-yl)-N-(2-fluoro-4-(6-isopropoxypyrazin-2-yl)phenyl)-2-methylpropanamide]"
5,< 100,"CCS(=O)(=O)Nc1nc(C(C)(C)C(=O)Nc2ccc(-c3cncc(F)c3)cc2)cs1 [T385, 2-(2-(ethylsulfonamido)thiazol-4-yl)-N-(4-(5-fluoropyridin-3-yl)phenyl)-2-methylpropanamide]"
6,< 100,"CCS(=O)(=O)Nc1nc(C(C)(C)C(=O)Nc2ccc(-c3cncc(C(F)(F)F)n3)cc2)cs1 [T387, 2-(2-(ethylsulfonamido)thiazol-4-yl)-2-methyl-N-(4-(6-(trifluoromethyl)pyrazin-2-yl)phenyl)propanamide]"
7,< 100,"CCS(=O)(=O)Nc1nc(C(C)(C)C(=O)Nc2ccc(-c3cncc(OC(C)C)n3)cc2)cs1 [T388, 2-(2-(ethylsulfonamido)thiazol-4-yl)-N-(4-(6-isopropoxypyrazin-2-yl)phenyl)-2-methylpropanamide]"
8,< 100,"CCOc1cncc(-c2ccc(NC(=O)C(C)(C)c3csc(NS(C)(=O)=O)n3)nc2)n1 [T390, N-(5-(6-ethoxypyrazin-2-yl)pyridin-2-yl)-2-methyl-2-(2-(methylsulfonamido)thiazol-4-yl)propanamide]"
9,< 100,"CC(C)(C(=O)Nc1ccc(-c2cncc(C(F)(F)F)n2)cc1F)c1csc(NS(C)(=O)=O)n1 [T391, N-(2-fluoro-4-(6-(trifluoromethyl)pyrazin-2-yl)phenyl)-2-methyl-2-(2-(methylsulfonamido)thiazol-4-yl)propanamide]"
10,< 100,"CC(C)Oc1cncc(-c2ccc(NC(=O)C(C)(C)c3csc(NS(C)(=O)=O)n3)c(F)c2)n1 [T392, N-(2-fluoro-4-(6-isopropoxypyrazin-2-yl)phenyl)-2-methyl-2-(2-(methylsulfonamido)thiazol-4-yl)propanamide]"
11,< 100,"CC(C)(C(=O)Nc1ccc(-c2cncc(C(F)(F)F)n2)cc1)c1csc(NS(C)(=O)=O)n1 [T394, 2-methyl-2-(2-(methylsulfonamido)thiazol-4-yl)-N-(4-(6-(trifluoromethyl)pyrazin-2-yl)phenyl)propanamide]"
12,< 100,"CC(C)Oc1cncc(-c2ccc(NC(=O)C(C)(C)c3csc(NS(C)(=O)=O)n3)cc2)n1 [T395, N-(4-(6-isopropoxypyrazin-2-yl)phenyl)-2-methyl-2-(2-(methylsulfonamido)thiazol-4-yl)propanamide]"
13,< 100,"CCOc1cncc(-c2ccc(NC(=O)C3(c4csc(NS(=O)(=O)C5CC5)n4)CC3)cc2)n1 [T398, 1-(2-(cyclopropanesulfonamido)thiazol-4-yl)-N-(4-(6-ethoxypyrazin-2-yl)phenyl)cyclopropane-1-carboxamide]"
14,< 100,"COCCC(C(=O)Nc1ccc(-c2cncc(C(F)(F)F)n2)cc1F)c1csc(NS(=O)(=O)C2CC2)n1 (stereo not shown) [T399, 2-(2-(cyclopropanesulfonamido)thiazol-4-yl)-N-(2-fluoro-4-(6-(trifluoromethyl)pyrazin-2-yl)phenyl)-4-methoxybutanamide]"
15,< 100,"COCCC(C(=O)Nc1ccc(-c2cncc(OC(C)C)n2)cc1F)c1csc(NS(=O)(=O)C2CC2)n1 (stereo not shown) [T400, 2-(2-(cyclopropanesulfonamido)thiazol-4-yl)-N-(2-fluoro-4-(6-isopropoxypyrazin-2-yl)phenyl)-4-methoxybutanamide]"
16,< 100,"CCc1cncc(-c2ccc(NC(=O)C(CC)c3csc(NS(=O)(=O)C4CC4)n3)c(F)c2)n1 (stereo not shown) [T405, 2-(2-(cyclopropanesulfonamido)thiazol-4-yl)-N-(4-(6-ethylpyrazin-2-yl)-2-fluorophenyl)butanamide]"
17,< 100,"CCOc1cncc(-c2ccc(NC(=O)C(NC(=O)OC(C)(C)C)c3csc(NS(=O)(=O)C4CC4)n3)cc2)n1 (stereo not shown) [T407, tert-butyl (1-(2-(cyclopropanesulfonamido)thiazol-4-yl)-2-((4-(6-ethoxypyrazin-2-yl)phenyl)amino)-2-oxoethyl)carbamate]"
